The text below walks through data of paper PMC12640959, “Elucidation of anti-SARS-CoV-2 and anti-inflammatory bioactives in Qingyan Dropping Pills via integrated in silico screening and bioactivity validation” (Frontiers in Medicine, 2025).

For one data set, the target named is S^pro RBD. Also on record: method as in PMID 34403732. Particulars: cited from earlier work.
The test system of a further data set is IL-1β. Briefly: IL-1β level (ELISA) in LPS-induced RAW 264.7 cells. The format is cell-based. As to conditions: RAW 264.7, LPS 1 μg/mL, 24 h, vs model group. An excerpt: (§1) NO is an essential pro-inflammatory factor, which can be not only highly expressed in cells but also promoted the expression of other inflammatory cytokines. TNF-α, IL-6, and IL-1β were considered as the main inflammatory cytokines, which were screened as the key targets in network pharmacology. So, the cytokines, including NO, TNF-α, IL-6, and IL-1β, were selected as indicators to evaluate the anti-inflammatory effects. After cultured in a 96-well plate overnight for 1 × 10^5 cells/well, RAW 264.7 cells were simultaneously treated with the tested compounds (concentration from 5 μM to 100 μM) and lipopolysaccharide (LPS) (concentration with 1 μg/mL) for 24 h. Then, the supernatant was collected to measure the cytokines levels with the corresponding assay kits, respectively.
Background: In an ELISA, binding on a coated surface is turned into a signal by an enzyme label.

Another data set has as its system RAW 264.7 cells. Briefly: MTT cell viability assay in RAW 264.7 cells. The format is cell-based. The procedure:
(§2) RAW 264.7 cells were cultured in DMEM with 10% fetal bovine serum, 100 μg/mL streptomycin, and 100 U/mL penicillin at 37 °C and supplemented with 5% CO2 and 95% air. After seeded and cultured in a 96-well plate (2 × 10^5 cells/well, 100 μL medium/well) for overnight, RAW 264.7 were treated with the tested compounds for 24 h, respectively. Then, 50 μL MTT (2.5 mg/mL) was added into each well and incubated at 37 °C for 4 h. Finally, the absorbance was recorded at 490 nm by a microplate reader to assess the cell viability.

Data set [1] addresses T1, SARS-CoV-2 spike protein (S^pro) (Severe acute respiratory syndrome coronavirus 2, UniProt P0DTC2).
T1 construct: purchased Sino Biological Inc. (Beijing, China)
Briefly: SPR assay (Biacore T200), immobilized S^pro. Type of data set: binding. As to conditions: CM5 chip, 25 °C, pH 7.4, 5% DMSO, read-out: equilibrium dissociation constant (KD), S^pro.

In data set [2] the target is SARS-CoV-2 papain-like protease (PL^pro) (Severe acute respiratory syndrome coronavirus 2, UniProt P0DTD1). Briefly: SPR assay (Biacore T200), immobilized PL^pro. Type of data set: binding.
The target of data set [3] is SARS-CoV-2 main protease (M^pro) (Severe acute respiratory syndrome coronavirus 2, UniProt P0DTD1). As to the kind of experiment: SPR assay (Biacore T200), immobilized M^pro. Type of data set: binding. As to conditions: CM5 chip, 25 °C, pH 7.4, 5% DMSO.
The test system of the next data set is NO. As to the kind of experiment: NO level in LPS-induced RAW 264.7 cells. Type of data set: cell-based. As to conditions: RAW 264.7, LPS 1 μg/mL, 24 h, vs model group, dose-dependent.
From the text: as §1

Another data set concerns IL-6. As to the kind of experiment: IL-6 level (ELISA) in LPS-induced RAW 264.7 cells. As to conditions: RAW 264.7, LPS 1 μg/mL, 24 h, vs model group. Type of data set: cell-based.
From the text: as §1

Another data set has as its system TNF-α. As to the kind of experiment: TNF-α level (ELISA) in LPS-induced RAW 264.7 cells. The format is cell-based. As to conditions: RAW 264.7, LPS 1 μg/mL, 24 h, vs model group.
From the text: as §1

Data set [4] in a line: MTT cell viability assay in RAW 264.7 cells. The format is cell-based. Particulars: mouse. The protocol: as §2
A general note: Formazan colour is commonly taken as a measure of viable cells.

The target of another data set is SARS-CoV-2 M^pro (Severe acute respiratory syndrome coronavirus 2, UniProt P0DTD1). As to the kind of experiment: FRET enzymatic inhibition assay on M^pro. Type of data set: biochemical.
For a further data set, the target named is SARS-CoV-2 PL^pro (Severe acute respiratory syndrome coronavirus 2, UniProt P0DTD1). Briefly: FRET enzymatic inhibition assay on PL^pro. Type of data set: biochemical. As to conditions: for inhibition on PL^pro at 40 μM: 40 μM compound.
A further data set deals with SARS-CoV-2 Omicron BA.5. Briefly: cytopathic effects (CPE) inhibition assay in Vero E6 cells. The format is cell-based. On the technique in general: Protection from cytopathic effect is a common read-out in antiviral testing.
For data set [5] the following is noted: rat, in vivo, po; cited from earlier work.
Another data set can be described thus: in vitro. Particulars: African green monkey.
Another data set relates to RdRp. More on the design: method as in PMID 33614402. As to conditions: cell-free and cell-based assays; cited from earlier work.
For another data set, the system named is SARS-CoV-2. More on the design: method as in PMID 37245876. Particulars: Vero E6 monolayers, noncytotoxic concentrations; cited from earlier work.
[6] abbreviates: MTT, 24 h, tested up to 100 μΜ, read-out: CC50 in RAW264.7 cells.

SMILES strings stand for the structures. Read-outs that look alike come from different tables or passages of the source. A value given as a limit tells only on which side of the number the result lay.

On to `O=C(/C=C/c1ccc(O)c(O)c1)O[C@@H]1C[C@](O)(C(=O)O)C[C@@H](OC(=O)/C=C/c2ccc(O)c(O)c2)[C@H]1O` [isochlorogenic acid A], for which the Kd on S^pro RBD is 18.3 µM.
As for `CC(C)=CCc1c(O)ccc(C(=O)/C=C/c2ccc(O)cc2)c1O` [isobavachalcone], the Kd at S^pro RBD was 5.7 µM.
For `O=C(OC[C@H]1OC(O)[C@@](O)(COC(=O)c2cc(O)c(O)c(O)c2)[C@@H]1O)c1cc(O)c(O)c(O)c1` (stereo partly shown) [HAM, hamamelitannin], the “level of IL-1β” value in the data set with IL-1β is given as “significantly reduce”. The “cell viability of RAW264.7 cells” value in the data set with RAW 264.7 cells is “significantly decreased”. For the same molecule, the dissociation constant (Kd) in [1] turned out to be 0.0933 µM. Further, the “equilibrium dissociation constant (KD), PL^pro” value in data set [2] (SPR, CM5 chip, 25 °C, pH 7.4, 5% DMSO) is on record as “negligible affinity”. For the same molecule, the “equilibrium dissociation constant (KD), M^pro” value in data set [3] was “negligible affinity”. In addition, the “production of NO” value in the data set with NO is “inhibited”. Further, the “level of IL-6” value with IL-6 is recorded as “significantly reduce”.
With `O=C(/C=C/c1ccc(O[C@@H]2O[C@H](CO)[C@@H](O)[C@H](O)[C@H]2O)cc1)c1ccc(O)cc1O` [ISO, isoliquiritin], in the data set on TNF-α, the “level of TNF-α” value is “decrease”. For the same molecule, the “level of IL-1β” value with IL-1β is reported as “significantly reduce”. Moreover, the CC50 at 24 h in data set [4] (setting [6]) was > 100 µM. The “production of NO” value in the data set with NO was “inhibited”. For the same molecule, the “level of IL-6” value in the data set with IL-6 is “significantly reduce”.
Regarding `C[C@@H]1O[C@@H](O[C@H]2[C@H](Oc3cc(O)c4c(=O)cc(-c5ccc(O)cc5)oc4c3)O[C@H](CO)[C@@H](O)[C@@H]2O)[C@H](O)[C@H](O)[C@H]1O` [RHO, rhoifolin], in the data set on TNF-α, the “level of TNF-α” value is “decrease”. The “level of IL-1β” value in the data set with IL-1β was “significantly reduce”. Further, the CC50 at 24 h in data set [4] is > 100 µM. Also, the Kd in [1] amounted to 7.07 µM; in [2] (SPR, CM5 chip, 25 °C, pH 7.4, 5% DMSO, read-out: equilibrium dissociation constant (KD), PL^pro) it was 7.72 µM. Further, the concentration for half-maximal inhibition (IC50) at SARS-CoV-2 M^pro (FRET, 0.2 μM protein, 20 μM substrate, read-out: IC50 on M^pro) was 21.6 ± 8.78 µM; at SARS-CoV-2 PL^pro (FRET, 1 μM protein, 10 μM substrate, read-out: IC50 on PL^pro) it was > 100 µM. At SARS-CoV-2 PL^pro (FRET), the “inhibition on PL^pro at 40 μM” value is “poor inhibition”. Further, the “production of NO” value in the data set with NO is reported as “inhibited”. The “level of IL-6” value in the data set with IL-6 is “significantly reduce”.
In the data set with SARS-CoV-2 Omicron BA.5, `Cn1cnc(Cn2c(=O)[nH]/c(=N\c3cc4cn(C)nc4cc3Cl)n(Cc3cc(F)c(F)cc3F)c2=O)n1` [S-217622, reference compound] gave a half-maximal effective concentration (EC50) of 0.088 µM.
As for `O=C(O[C@@H]1Cc2c(O)cc(O)cc2O[C@@H]1c1cc(O)c(O)c(O)c1)c1cc(O)c(O)c(O)c1` [epigallocatechin gallate], on S^pro RBD, the Kd was 11.5 µM.
For `C[C@H](CCC(=O)NCC(=O)O)[C@H]1CC[C@H]2[C@@H]3[C@H](O)C[C@@H]4C[C@H](O)CC[C@]4(C)[C@H]3C[C@H](O)[C@]12C` [GLYCH, glycocholic acid], the “level of TNF-α” value with TNF-α was “decrease”. Also, in the data set on IL-1β, the “level of IL-1β” value was “significantly reduce”. For the same molecule, the “cell viability of RAW264.7 cells” value in the data set on RAW 264.7 cells (MTT, above 40 μΜ, p < 0.05) is listed as “significantly decreased”. In the data set with NO, the “production of NO” value is listed as “inhibited”. Also, the “level of IL-6” value in the data set on IL-6 was “significantly reduce”.
For `CC1(C)C2CCC1(C)C(O)C2` (stereo not shown) [borneol], the time to peak (Tmax) in data set [5] was 20 to 25 min.
Consider `O=C(O)c1cc(O)c(O)c(O)c1` [GAL, gallic acid], for which the “level of TNF-α” value in the data set with TNF-α is on record as “decrease”. In addition, in the data set with IL-1β, the “level of IL-1β” value is reported as “significantly reduce”. In addition, the CC50 at 24 h in data set [4] (setting [6]) was > 100 µM. Also, the “production of NO” value with NO is reported as “inhibited”. The “level of IL-6” value in the data set on IL-6 is “significantly reduce”.
For the molecule `O=C(O[C@@H]1O[C@@H]2COC(=O)c3cc(O)c(O)c(O)c3-c3c(cc(O)c(O)c3O)C(=O)O[C@H]([C@H]1O)[C@@H]2O)c1cc(O)c(O)c(O)c1` [COR, corilagin], the “level of TNF-α” value in the data set with TNF-α was “decrease”. Also, in the data set with IL-1β, the “level of IL-1β” value is “significantly reduce”. In addition, the CC50 at 24 h in data set [4] was > 100 µM. Besides, the equilibrium dissociation constant (Kd) was 0.192 µM in [1] and 6.24 µM in data set [2]. In addition, the CC50 at 48 h in the data set “in vitro” is > 100 µM. Also, the concentration for half-maximal inhibition (IC50) was 0.73 ± 0.05 µM at SARS-CoV-2 M^pro and > 100 µM on SARS-CoV-2 PL^pro. In addition, the RdRp polymerase activity result with RdRp was “robustly inhibiting”. Also, the response in the data set on SARS-CoV-2 Omicron BA.5 (Severe acute respiratory syndrome coronavirus 2, Vero C1008, 48 h) was half-maximal at 12.8 µM (EC50). Besides, on SARS-CoV-2 PL^pro (FRET), the “inhibition on PL^pro at 40 μM” value was “poor inhibition”. The “production of NO” value in the data set with NO is recorded as “inhibited”. Further, the “level of IL-6” value in the data set on IL-6 is “significantly reduce”.
For the molecule `O=C(O)C[C@@H]1C(=O)O[C@H]2[C@@H]3OC(=O)c4cc(O)c(O)c(O)c4-c4c(cc(O)c(O)c4O)C(=O)OC[C@H]2O[C@@H](OC(=O)c2cc(O)c(O)c(O)c2)[C@@H]3OC(=O)c2cc(O)c(O)c3c2[C@H]1[C@H](O)C(=O)O3` [chebulagic acid], the virus-induced plaque formation result in the data set on SARS-CoV-2 is on record as “reduce”.
Regarding `O=C1O[C@H]2[C@@H]3OC(=O)c4cc(O)c(O)c(O)c4-c4c(O)c(O)c5oc(=O)c6c(c(O)c(O)c7oc(=O)c4c5c76)-c4c(cc(O)c(O)c4O)C(=O)OC[C@H]3OC(O)[C@@H]2OC(=O)c2cc(O)c(O)c(O)c2-c2c1cc(O)c(O)c2O` (mixture of isomers) [punicalagin], in the data set with SARS-CoV-2, the virus-induced plaque formation entry is on record as “reduce”.

One may read the Kd as the constant that tells how readily two partners part at equilibrium. The term IC50 denotes the point on the concentration scale where inhibition reaches its midpoint. One may read the EC50 as the midpoint of the concentration-response curve. One may read the Tmax as the time from dosing to the highest level.
